Results reported in US20180036332A1 (Chongqing Institute of Bench-to Bed Bioengineering …, priority 2015, published 2018).

Columns and labels:
[1] = system: primary endothelial cells HUVEC; assay: MTT cell viability assay of primary endothelial cells HUVEC in low glucose and hypoxia environment; format: cell-based; details: 48 hours
[2] = parameters: species or system rats; details: rat, in vivo

With “Nicotinamide adenine dinucleotide phosphate [NADPH]” the “survival rate of HUVEC cells” value ([1]; 5 μM NADPH, p<0.05) was “around 65.3%”, the “survival rate of HUVEC cells” value ([1]; 10 μM NADPH, p<0.01) was “around 73.6%” and the “survival rate of HUVEC cells” value ([1]; 20 μM NADPH, p<0.01) was “around 70.9%”. For the same substance, the “range of myocardial infarction (weight % of ischemic infarct zone in total ischemic myocardial zone)” value [2] was “significantly reduces the range of myocardial infarction”.
